Values quoted from earlier work, collected in patent US20220354121A1, “EXTERNALLY HEATED GEL REPELLENT” (Lamplight Farms Incorporated, priority 2021, published 2022).

System: insect
Conditions: release into local atmosphere

C/C=C/C1C(C(=O)OCc2c(F)c(F)c(COC)c(F)c2F)C1(C)C (stereo not shown) [metofluthrin]
metofluthrin release known to be sufficient for local repellency purposes: 7 to 12 mg/h
